Measurements taken from ChEMBL document CHEMBL5365526 (J Med Chem, 2023).
Active and inactive are the calls of the source. The calls are words filed in the database; no cut-off is given here.

Experiments:
[1] = biological target: T1, von Hippel-Lindau disease tumor suppressor/Mitogen-activated protein kinase 7 (Homo sapiens, UniProt Q13164+P40337); assay: PROTAC activity at VHL/ERK5 in human NCI-H1975 cells assessed as maximal induction of ERK5 degradation incubated for 12 hrs by western blot analysis relative to control; assay type: cell-based
Target sequence in this assay (P40337 whole entry partner): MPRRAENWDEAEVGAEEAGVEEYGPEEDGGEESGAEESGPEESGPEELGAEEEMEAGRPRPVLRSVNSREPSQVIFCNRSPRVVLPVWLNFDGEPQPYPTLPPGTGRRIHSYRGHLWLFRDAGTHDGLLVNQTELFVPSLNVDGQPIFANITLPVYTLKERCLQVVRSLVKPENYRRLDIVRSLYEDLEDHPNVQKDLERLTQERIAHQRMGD
Target sequence in this assay (Q13164 2-816 limits assumed): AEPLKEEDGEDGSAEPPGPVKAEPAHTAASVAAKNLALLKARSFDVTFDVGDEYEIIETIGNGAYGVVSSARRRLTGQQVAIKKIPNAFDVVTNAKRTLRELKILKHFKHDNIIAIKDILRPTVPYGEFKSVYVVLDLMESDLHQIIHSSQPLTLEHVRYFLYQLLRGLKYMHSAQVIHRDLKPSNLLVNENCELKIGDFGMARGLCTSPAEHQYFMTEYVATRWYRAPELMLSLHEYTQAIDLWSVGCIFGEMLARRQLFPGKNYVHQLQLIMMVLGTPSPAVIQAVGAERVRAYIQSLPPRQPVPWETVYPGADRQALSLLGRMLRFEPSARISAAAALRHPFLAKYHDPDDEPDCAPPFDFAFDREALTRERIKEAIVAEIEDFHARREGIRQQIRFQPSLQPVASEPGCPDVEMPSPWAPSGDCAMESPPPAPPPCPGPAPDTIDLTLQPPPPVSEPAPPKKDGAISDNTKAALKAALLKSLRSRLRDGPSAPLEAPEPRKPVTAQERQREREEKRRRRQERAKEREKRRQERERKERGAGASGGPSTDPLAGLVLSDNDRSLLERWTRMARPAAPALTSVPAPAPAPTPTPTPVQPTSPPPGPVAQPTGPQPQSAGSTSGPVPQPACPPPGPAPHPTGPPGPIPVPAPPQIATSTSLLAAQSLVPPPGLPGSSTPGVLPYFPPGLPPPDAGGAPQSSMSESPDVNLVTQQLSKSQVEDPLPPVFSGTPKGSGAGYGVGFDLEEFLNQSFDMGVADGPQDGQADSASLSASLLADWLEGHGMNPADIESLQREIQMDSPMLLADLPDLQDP

A-375 [2] = assay: Inhibition of M2 macrophage development in human A-375 cells assessed as inhibition of cell colony formation at 0.5 uM cultured in specific M2 medium and measured after 7 days in presence of LPS by crystal violet staining based analysis; assay type: functional; settings: time 7.0 day
[3] = biological target: T1, von Hippel-Lindau disease tumor suppressor/Mitogen-activated protein kinase 7; assay: PROTAC activity at VHL/ERK5 in human A-375 cells assessed as induction of ERK5 degradation at 200 nM incubated for 72 hrs by western blot analysis; assay type: cell-based
Target sequence in this assay (P40337 whole entry partner): as the sequence (P40337 whole entry partner) above
Target sequence in this assay (Q13164 2-816 limits assumed): as the sequence (Q13164 2-816 limits assumed) above

[4] = biological target: T1, von Hippel-Lindau disease tumor suppressor/Mitogen-activated protein kinase 7; assay: PROTAC activity at VHL/ERK5 in human NCI-H1975 cells assessed as induction of ERK5 degradation incubated for 12 hrs by western blot analysis; assay type: cell-based
Target sequence in this assay (Q13164 whole entry): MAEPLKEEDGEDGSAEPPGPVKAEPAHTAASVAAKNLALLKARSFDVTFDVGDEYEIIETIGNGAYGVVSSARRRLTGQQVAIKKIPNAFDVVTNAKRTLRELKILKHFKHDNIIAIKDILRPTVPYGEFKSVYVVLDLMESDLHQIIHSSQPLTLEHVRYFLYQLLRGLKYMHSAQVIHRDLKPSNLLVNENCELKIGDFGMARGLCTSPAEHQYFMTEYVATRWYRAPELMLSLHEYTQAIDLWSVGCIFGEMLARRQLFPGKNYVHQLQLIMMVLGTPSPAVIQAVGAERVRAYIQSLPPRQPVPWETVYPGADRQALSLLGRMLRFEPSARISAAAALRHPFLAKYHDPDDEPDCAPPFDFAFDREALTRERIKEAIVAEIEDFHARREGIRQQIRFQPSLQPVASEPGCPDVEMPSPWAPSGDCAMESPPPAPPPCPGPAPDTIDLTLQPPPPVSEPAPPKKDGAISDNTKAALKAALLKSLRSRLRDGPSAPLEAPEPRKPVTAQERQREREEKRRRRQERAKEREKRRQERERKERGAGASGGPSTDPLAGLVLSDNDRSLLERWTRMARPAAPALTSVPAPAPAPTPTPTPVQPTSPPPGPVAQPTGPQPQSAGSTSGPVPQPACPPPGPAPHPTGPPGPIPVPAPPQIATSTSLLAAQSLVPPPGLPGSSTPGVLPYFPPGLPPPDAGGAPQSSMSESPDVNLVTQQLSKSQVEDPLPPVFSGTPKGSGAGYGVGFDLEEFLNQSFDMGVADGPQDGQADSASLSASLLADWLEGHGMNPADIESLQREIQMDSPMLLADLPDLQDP
Target sequence in this assay (P40337 whole entry): as the sequence (P40337 whole entry partner) above

[5] = biological target: T1, von Hippel-Lindau disease tumor suppressor/Mitogen-activated protein kinase 7; assay: PROTAC activity at VHL/ERK5 in human HCT-116 cells assessed as induction of ERK5 degradation incubated for 12 hrs by western blot analysis; assay type: cell-based
Target sequence in this assay (Q13164 whole entry): as the sequence (Q13164 whole entry) above
Target sequence in this assay (P40337 whole entry): as the sequence (P40337 whole entry partner) above

HCT-116 [6] = assay: Effect on mirdametinib-induced antitumor activity against human HCT-116 cells assessed as reduction in cell viability at 200 nM incubated for 72 hrs by CCK8 assay; assay type: functional, cell-based
NCI-H1975 = assay: Antiproliferative activity against human NCI-H1975 cells assessed as reduction in cell viability incubated for 72 hrs by CCK8 assay; assay type: functional, cell-based
HCT-116 [7] = assay: Inhibition of M2 macrophage development in human HCT-116 cells assessed as inhibition of cell colony formation at 0.5 uM cultured in specific M2 medium and measured after 7 days in presence of LPS by crystal violet staining based analysis; assay type: functional; settings: time 7.0 day
HCT-116 [8] = assay: Effect on trametinib-induced antitumor activity against human HCT-116 cells assessed as reduction in cell viability at 200 nM incubated for 72 hrs by CCK8 assay; assay type: functional, cell-based
HCT-116 [9] = assay: Antiproliferative activity against human HCT-116 cells assessed as reduction in cell viability incubated for 72 hrs by CCK8 assay; assay type: functional, cell-based
MDA-MB-231 = assay: Antiproliferative activity against human MDA-MB-231 cells assessed as reduction in cell viability incubated for 72 hrs by CCK8 assay; assay type: functional, cell-based
A-375 [10] = assay: Antiproliferative activity against human A-375 cells assessed as reduction in cell viability incubated for 72 hrs by CCK8 assay; assay type: functional, cell-based
[11] = biological target: T1, von Hippel-Lindau disease tumor suppressor/Mitogen-activated protein kinase 7; assay: PROTAC activity at VHL/ERK5 in human HCT-116 cells assessed as induction of ERK5 degradation at 200 nM incubated for 48 hrs by western blot analysis; assay type: cell-based
Target sequence in this assay (P40337 whole entry partner): as above
Target sequence in this assay (Q13164 2-816 limits assumed): as the sequence (Q13164 2-816 limits assumed) above

[12] = biological target: T1, von Hippel-Lindau disease tumor suppressor/Mitogen-activated protein kinase 7; assay: PROTAC activity at VHL/ERK5 in human A-375 cells assessed as induction of ERK5 degradation incubated for 24 hrs by western blot analysis; assay type: cell-based
Target sequence in this assay (Q13164 whole entry): as the sequence (Q13164 whole entry) above
Target sequence in this assay (P40337 whole entry): as the sequence (P40337 whole entry partner) above

A-375 [13] = assay: Effect on mirdametinib-induced antitumor activity against human A-375 cells assessed as reduction in cell viability at 200 nM incubated for 72 hrs by CCK8 assay; assay type: functional, cell-based
[14] = biological target: T1, von Hippel-Lindau disease tumor suppressor/Mitogen-activated protein kinase 7; assay: PROTAC activity at VHL/ERK5 in human A-375 cells assessed as induction of ERK5 degradation at 200 nM incubated for 2 to 4 hrs by western blot analysis; assay type: cell-based; settings: time 2-4 hrs
Target sequence in this assay (P40337 whole entry partner): as above
Target sequence in this assay (Q13164 2-816 limits assumed): as the sequence (Q13164 2-816 limits assumed) above

[15] = biological target: Mitogen-activated protein kinase 7 (Homo sapiens, UniProt Q13164); assay: Inhibition of ERK5 (unknown origin) at 0.5 uM by kinase profiling analysis
Chain of Mitogen-activated protein kinase 7 (Q13164 2-816 limits assumed): as above

[16] = biological target: von Hippel-Lindau disease tumor suppressor/Leucine-rich repeat serine/threonine-protein kinase 2 (Homo sapiens) (UniProt Q5S007+P40337); assay: PROTAC activity at VHL/LRRK2 in human A-375 cells assessed as induction of LRRK2 degradation at 6 to 500 nM incubated for 12 hrs by western bot analysis; assay type: cell-based; settings: dose 6-500 nM
A-375 [17] = assay: Effect on trametinib-induced antitumor activity against human A-375 cells assessed as reduction in cell viability at 200 nM incubated for 72 hrs by CCK8 assay; assay type: functional, cell-based
HCT-116 [18] = assay: Effect on vemurafenib-induced antitumor activity against human HCT-116 cells assessed as reduction in cell viability at 200 nM incubated for 72 hrs by CCK8 assay; assay type: functional, cell-based
A-375 [19] = assay: Inhibition of M2 macrophage development in human A-375 cells assessed as inhibition of cell colony formation at 0.5 uM cultured in macrophage M0 medium and measured after 7 days in presence of LPS by crystal violet staining based analysis; assay type: functional; settings: time 7.0 day
[20] = biological target: T1, von Hippel-Lindau disease tumor suppressor/Mitogen-activated protein kinase 7; assay: PROTAC activity at VHL/ERK5 in human THP-1 cells assessed as induction of ERK5 degradation at 0.5 uM incubated for 0.5 hrs followed by incubation with LPS for 24 hrs by western blot analysis; assay type: cell-based; settings: time 24.5 hrs
Target sequence in this assay (P40337 whole entry partner): as the sequence (P40337 whole entry partner) above
Target sequence in this assay (Q13164 2-816 limits assumed): as the sequence (Q13164 2-816 limits assumed) above

HCT-116 [21] = assay: Effect on dabrafenib-induced antitumor activity against human HCT-116 cells assessed as reduction in cell viability at 200 nM incubated for 72 hrs by CCK8 assay; assay type: functional, cell-based
[22] = Inhibition of M2 macrophage development in PMA-differentiated human THP-1 cells assessed as CD206 surface expression at 0.5 uM incubated for 48 hrs by flow cytometry (reference value: 53.4%); assay type: functional; parameters: scale not given: the % may be the effect or the level left
[23] = biological target: T1, von Hippel-Lindau disease tumor suppressor/Mitogen-activated protein kinase 7; assay: PROTAC activity at VHL/ERK5 in human A-375 cells assessed as maximal induction of ERK5 degradation incubated for 12 hrs by western blot analysis relative to control; assay type: cell-based
Target sequence in this assay (P40337 whole entry partner): as the sequence (P40337 whole entry partner) above
Target sequence in this assay (Q13164 2-816 limits assumed): as the sequence (Q13164 2-816 limits assumed) above

THP-1 = assay: Inhibition of M2 macrophage development in PMA-differentiated human THP-1 cells assessed as morphological alterations in macrophages at 0.5 uM incubated for 48 hrs by microscopic analysis; assay type: functional, cell-based
[24] = biological target: T1, von Hippel-Lindau disease tumor suppressor/Mitogen-activated protein kinase 7; assay: PROTAC activity at VHL/ERK5 in human A-375 cells assessed as induction of ERK5 degradation at 200 nM incubated for 12 hrs by western blot analysis; assay type: cell-based
A-375 [25] = assay: Inhibition of cell colony formation in human A-375 cells at 0.5 uM cultured in 8% FBS and measured after 7 days in presence of LPS by crystal violet staining based analysis; assay type: functional; settings: time 7.0 day
A-375 [26] = assay: Effect on vemurafenib-induced antitumor activity against human A-375 cells assessed as reduction in cell viability at 200 nM incubated for 72 hrs by CCK8 assay; assay type: functional, cell-based
[27] = biological target: T1, von Hippel-Lindau disease tumor suppressor/Mitogen-activated protein kinase 7; assay: PROTAC activity at VHL/ERK5 in human A-375 cells assessed as induction of ERK5 degradation at 200 nM pretreated for 1 hr with proteasome inhibitor, MG132 followed by incubation with compound for 12 hrs by western blot analysis; assay type: cell-based
[28] = biological target: T1, von Hippel-Lindau disease tumor suppressor/Mitogen-activated protein kinase 7; assay: PROTAC activity at VHL/ERK5 in human A-375 cells assessed as induction of ERK5 degradation incubated for 12 hrs by western blot analysis; assay type: cell-based
Target sequence in this assay (Q13164 whole entry): as the sequence (Q13164 whole entry) above
Target sequence in this assay (P40337 whole entry): as the sequence (P40337 whole entry partner) above

[29] = biological target: T1, von Hippel-Lindau disease tumor suppressor/Mitogen-activated protein kinase 7; assay: PROTAC activity at VHL/ERK5 in human HepG2 cells assessed as induction of ERK5 degradation incubated for 12 hrs by western blot analysis; assay type: cell-based
Target sequence in this assay (Q13164 whole entry): as the sequence (Q13164 whole entry) above
Target sequence in this assay (P40337 whole entry): as the sequence (P40337 whole entry partner) above

HCT-116 [30] = assay: Effect on cell migration in human HCT-116 cells at 0.01 to 1 uM incubated for 24 hrs by crystal violet staining based transwell assay; assay type: functional; settings: dose 0.01-1 µM
A-375 [31] = assay: Effect on dabrafenib-induced antitumor activity against human A-375 cells assessed as reduction in cell viability at 200 nM incubated for 72 hrs by CCK8 assay; assay type: functional, cell-based

Activity [1]: 94.7%
Activity [3]: Active
DC50 [4]: 11.5 nM
DC50 [5]: 5.6 nM
Activity [11]: Active
DC50 [12]: ~17 nM
Activity [14]: Active
inhibition [15]: Active
Activity [16]: inactive
Activity [20]: Active
Activity [23]: 91.4%
Activity [24]: Active
Activity [27]: inactive
DC50 [28]: 41.4 nM
DC50 [29]: 13.7 nM
SMILES: COc1cc(N2CCN(CCCCCCC(=O)N[C@H](C(=O)N3C[C@H](O)C[C@H]3C(=O)N[C@@H](C)c3ccc(-c4scnc4C)cc3)C(C)(C)C)CC2)ccc1Nc1ncc2c(n1)N(C)c1ccccc1C(=O)N2C
inhibition (A-375 [2]): Active
Activity (HCT-116 [6]): inactive
Activity (NCI-H1975): inactive
inhibition (HCT-116 [7]): Active
Activity (HCT-116 [8]): inactive
Activity (HCT-116 [9]): inactive
Activity (MDA-MB-231): inactive
Activity (A-375 [10]): inactive
Activity (A-375 [13]): inactive
Activity (A-375 [17]): inactive
Activity (HCT-116 [18]): inactive
inhibition (A-375 [19]): Active
Activity (HCT-116 [21]): inactive
Activity [22]: 41.3%
inhibition (THP-1): Active
inhibition (A-375 [25]): inactive
Activity (A-375 [26]): inactive
Activity (HCT-116 [30]): inactive
Activity (A-375 [31]): inactive
